Target: recombinant human MGAT2 (Homo sapiens (Human), UniProt Q3SYC2)
Test: Measurement of human MGAT2 inhibitory activity
Type: biochemical
Settings: read-out: IC50 (concentration exhibiting 50% enzyme inhibition), Table 52
Procedure, shortened: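 RapidFire ESI-MS read-out of the diolein/diolein-d5 peak ratio gave % inhibition, with no-enzyme and full-enzyme wells as 100% and 0%. Reactions ran 1 h at room temperature at pH 7.4 (phosphate, 2 mmol/L DTT), using Flag-tagged human MGAT2 membranes from Sf9 cells and a substrate solution of 30 μmol/L 2-oleoylglycerol and 10 μmol/L oleoyl-CoA.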

recombinant human MGAT2, sequence (Q3SYC2 whole entry): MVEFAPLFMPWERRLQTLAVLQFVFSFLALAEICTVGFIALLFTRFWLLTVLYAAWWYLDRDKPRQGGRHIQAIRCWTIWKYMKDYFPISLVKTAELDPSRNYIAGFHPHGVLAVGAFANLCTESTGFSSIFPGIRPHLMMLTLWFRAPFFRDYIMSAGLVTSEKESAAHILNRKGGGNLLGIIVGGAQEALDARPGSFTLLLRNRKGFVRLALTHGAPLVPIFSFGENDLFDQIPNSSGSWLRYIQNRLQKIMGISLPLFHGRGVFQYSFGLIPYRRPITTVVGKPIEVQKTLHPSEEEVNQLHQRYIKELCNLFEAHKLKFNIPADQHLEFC

Point of comparison: `O=C1N[C@@]2(CCc3cc(OCC(F)(F)F)ccc32)Cc2nn(CCC3CC3)c(NC(=O)C3CS(=O)(=O)C3)c21` [Compound I-183], IC50 18 nM. Against it:
- O=C1N[C@@]2(CCc3cc(OCC(F)(F)F)ccc32)Cc2nn(CCC3CC3)c(CNS(=O)(=O)C3CCC3)c21 [Compound I-143] — 28-fold higher, 510 nM
- O=C1N[C@@]2(CCc3cc(OCC(F)(F)F)ccc32)Cc2nn(CCC3CC3)c(CNS(=O)(=O)CCO)c21 [Compound I-144] — 22-fold higher, 400 nM
- O=C1N[C@@]2(CCc3cc(OCC(F)(F)F)ccc32)Cc2nn(CCC3CC3)c(CNC(=O)C3CC3)c21 [Compound I-145] — 4.6-fold higher, 83 nM
- Cc1ccccc1C(=O)NCc1c2c(nn1CCC1CC1)C[C@]1(CCc3cc(OCC(F)(F)F)ccc31)NC2=O [Compound I-146] — 23-fold higher, 420 nM
- O=C1N[C@@]2(CCc3cc(OCC(F)(F)F)ccc32)Cc2nn(CCC3CC3)c(CNC(=O)C3CCC3)c21 [Compound I-147] — 2.2-fold higher, 39 nM
- O=C(CC(F)(F)F)NCc1c2c(nn1CCC1CC1)C[C@]1(CCc3cc(OCC(F)(F)F)ccc31)NC2=O [Compound I-148] — 3.2-fold lower, 5.6 nM
- O=C(NCc1c2c(nn1CCC1CC1)C[C@]1(CCc3cc(OCC(F)(F)F)ccc31)NC2=O)c1cccc(O)c1 [Compound I-149] — 38-fold higher, 690 nM
- O=C(NCc1c2c(nn1CCC1CC1)C[C@]1(CCc3cc(OCC(F)(F)F)ccc31)NC2=O)c1ncco1 [Compound I-150] — 5.6-fold higher, 100 nM
- O=C(NCc1c2c(nn1CCC1CC1)C[C@]1(CCc3cc(OCC(F)(F)F)ccc31)NC2=O)c1ccon1 [Compound I-151] — 10-fold higher, 180 nM
- O=C(NCc1c2c(nn1CCC1CC1)C[C@]1(CCc3cc(OCC(F)(F)F)ccc31)NC2=O)c1ccno1 [Compound I-152] — 17-fold higher, 300 nM
- N#CC1(C(=O)NCc2c3c(nn2CCC2CC2)C[C@]2(CCc4cc(OCC(F)(F)F)ccc42)NC3=O)CC1 [Compound I-153] — 13-fold higher, 240 nM
- O=C(NCc1c2c(nn1CCC1CC1)C[C@]1(CCc3cc(OCC(F)(F)F)ccc31)NC2=O)c1cocn1 [Compound I-154] — 29-fold higher, 530 nM
- CC(C)(O)C(=O)NCc1c2c(nn1CCC1CC1)C[C@]1(CCc3cc(OCC(F)(F)F)ccc31)NC2=O [Compound I-155] — 10-fold higher, 180 nM
- O=C1N[C@@]2(CCc3cc(OCC(F)(F)F)ccc32)Cc2nn(CCC3CC3)c(CNC(=O)C3(O)CC3)c21 [Compound I-156] — 51-fold higher, 920 nM
- O=C1N[C@@]2(CCc3cc(OCC(F)(F)F)ccc32)Cc2nn(CCC3CC3)c(CNC(=O)C3(C(F)(F)F)CC3)c21 [Compound I-157] — 2.1-fold higher, 38 nM
- O=C1N[C@@]2(CCc3cc(OCC(F)(F)F)ccc32)Cc2nn(CCC3CC3)c(CNC(=O)C3(C(F)(F)F)CCC3)c21 [Compound I-158] — 7.2-fold higher, 130 nM
- O=C(NCc1c2c(nn1CCC1CC1)C[C@]1(CCc3cc(OCC(F)(F)F)ccc31)NC2=O)c1cnco1 [Compound I-159] — 33-fold higher, 600 nM
- CC(C)(C#N)C(=O)NCc1c2c(nn1CCC1CC1)C[C@]1(CCc3cc(OCC(F)(F)F)ccc31)NC2=O [Compound I-160] — 4.3-fold higher, 78 nM
- O=C1N[C@@]2(CCc3cc(OCC(F)(F)F)ccc32)Cc2nn(CCC3CC3)c(CNC(=O)C3CS(=O)(=O)C3)c21 [Compound I-161] — 24-fold higher, 430 nM
- CS(=O)(=O)CC(=O)Nc1c2c(nn1-c1ccc(C#N)cn1)C[C@]1(CCc3cc(OCC(F)(F)F)cc(F)c31)NC2=O [Compound I-162] — 9.5-fold lower, 1.9 nM
- CS(=O)(=O)CC(=O)Nc1c2c(nn1-c1ccc(C#N)cn1)C[C@]1(CCc3cc(N4CC(F)(F)C4)ccc31)NC2=O [Compound I-163] — 5-fold lower, 3.6 nM
- CS(=O)(=O)CC(=O)Nc1c2c(nn1-c1ccc(C#N)cc1)C[C@]1(CCc3cc(F)cc(F)c31)NC2=O [Compound I-164] — 4.8-fold higher, 86 nM
- CS(=O)(=O)CC(=O)Nc1c2c(nn1CCC1CC1)C[C@@]1(CCc3cc(N4CC(F)(F)C4)ccc31)NC2=O [Compound I-165] — 3.5-fold lower, 5.2 nM
- CS(=O)(=O)CC(=O)Nc1c2c(nn1CCC1CC1)C[C@@]1(CCc3cc(N4CC(C(F)(F)F)C4)ccc31)NC2=O [Compound I-166] — 2.5-fold lower, 7.1 nM
- CS(=O)(=O)CC(=O)Nc1c2c(nn1-c1ccc(C#N)cn1)C[C@]1(CCc3cc(N4CC(C(F)(F)F)C4)ccc31)NC2=O [Compound I-168] — 3.1-fold lower, 5.9 nM
- CS(=O)(=O)CC(=O)Nc1c2c(nn1-c1ccccn1)C[C@@]1(CCc3cc(OCC(F)(F)F)cc(F)c31)NC2=O [Compound I-169] — 1.8-fold lower, 9.8 nM
- CS(=O)(=O)CC(=O)Nc1c2c(nn1CCC1CC1)C[C@](c1ccc(OCC(F)(F)F)cc1F)(C(F)(F)F)NC2=O [Compound I-171] — 1.5-fold lower, 12 nM
- Cn1cc(C(=O)Nc2c3c(nn2CCC2CC2)C[C@]2(CCc4cc(OCC(F)(F)F)ccc42)NC3=O)nn1 [Compound I-172] — 27-fold higher, 480 nM
- CS(=O)(=O)CC(=O)Nc1c2c(nn1Cc1ccc(C(F)(F)F)o1)C[C@]1(CCc3cc(OCCCC(F)(F)F)ccc31)NC2=O [Compound I-173] — 4.3-fold higher, 78 nM
- COc1ccc(C(=O)Nc2c3c(nn2CCC2CC2)C[C@]2(CCc4cc(OCCCC(F)(F)F)ccc42)NC3=O)cc1 [Compound I-174] — 3.5-fold higher, 63.7 nM
- CS(=O)(=O)CC(=O)Nc1c2c(nn1-c1ccccn1)C[C@]1(CCc3cc(F)cc(F)c31)NC2=O [Compound I-175] — 4.8-fold higher, 86 nM
- Cc1cc(C(=O)Nc2c3c(nn2CCC2CC2)C[C@]2(CCc4cc(OCC(F)(F)F)ccc42)NC3=O)no1 [Compound I-176] — 10-fold higher, 180 nM
- O=C1N[C@@]2(CCc3cc(OCC(F)(F)F)ccc32)Cc2nn(CCC3CC3)c(NC(=O)c3onc4ccccc34)c21 [Compound I-177] — 34-fold higher, 610 nM
- CS(=O)(=O)CC(=O)Nc1c2c(nn1CCC1CC1)C[C@]1(CCc3cc(F)cc(F)c31)NC2=O [Compound I-178] — 2.2-fold higher, 39 nM
- Cc1cccc(-n2nc3c(c2NC(=O)CS(C)(=O)=O)C(=O)N[C@@]2(CCc4cc(OCCCC(F)(F)F)ccc42)C3)c1 [Compound I-179] — 3-fold lower, 6.1 nM
- Cc1ccccc1-n1nc2c(c1NC(=O)CS(C)(=O)=O)C(=O)N[C@@]1(CCc3cc(OCCCC(F)(F)F)ccc31)C2 [Compound I-180] — 8.3-fold higher, 150 nM
- O=C1N[C@@]2(CCc3cc(OCC(F)(F)F)ccc32)Cc2nn(CCC3CC3)c(C(=O)NS(=O)(=O)C3CC3)c21 [Compound I-181] — within 1.5-fold, 15 nM
- CS(=O)(=O)CC(=O)Nc1c2c(nn1-c1ccc(F)cc1)C[C@]1(CCOc3cc(OCC(F)(F)F)ccc31)NC2=O [Compound I-182] — 7.2-fold lower, 2.5 nM
- O=C1N[C@@]2(CCc3cc(OCC(F)(F)F)ccc32)Cc2nn(CCC3CC3)c(NC(=O)C3CC(F)(F)C3)c21 [Compound I-184] — 3.8-fold higher, 68 nM
- CS(=O)(=O)CC(=O)Nc1c2c(nn1-c1ccccn1)C[C@]1(CCc3cc(OCC(F)(F)F)cc(F)c31)NC2=O [Compound I-185] — 2.9-fold lower, 6.3 nM
- O=C1N[C@@]2(CCc3cc(OCC(F)(F)F)ccc32)Cc2nn(CCC3CC3)c(-c3noc(=O)[nH]3)c21 [Compound I-186] — 2.4-fold lower, 7.6 nM
- O=C1N[C@@]2(CCc3cc(OCC(F)(F)F)ccc32)Cc2nn(CCC3CC3)c(C(=O)O)c21 [Compound I-187] — 11-fold higher, 190 nM
- CS(=O)(=O)CC(=O)Nc1c2c(nn1-c1ccncn1)C[C@]1(CCc3cc(OCC(F)(F)F)ccc31)NC2=O [Compound I-188] — 2.9-fold higher, 52 nM
- CS(=O)(=O)CC(=O)Nc1c2c(nn1-c1ccc(C(F)(F)F)cn1)C[C@]1(CCc3cc(OCC(F)(F)F)ccc31)NC2=O [Compound I-189] — 15-fold lower, 1.2 nM
- CS(=O)(=O)CC(=O)Nc1c2c(nn1CCc1ccccc1)C[C@]1(CCc3cc(OCC(F)(F)F)ccc31)NC2=O [Compound I-191] — 1.6-fold higher, 28 nM

Reference: patent US11198695B2, “Fused ring derivative having MGAT-2 inhibitory activity” (Shionogi & Co., Ltd., priority 2017, dated 2021)
